Measurements from the NIST ThermoML archive (doi:10.1021/acs.jced.6b00542).
Numbers after ± are expanded uncertainties.

Assay: xn = mol fraction of the nth substance listed
Details: for speed of sound: 100 kPa, Frequency=3 MHz, Sing-around technique in a fixed-path interferometer; for speed of sound / viscosity / mass density: Liquid; for viscosity / mass density: 102 kPa; for viscosity: Concentric cylinders viscometry; for mass density: Vibrating tube method; for surface tension liquid-gas: 294.5 K, Pendant drop shape

CCCCc1ccccc1 [butylbenzene] + CCCCCCCCCCCCCCCC
Details | mass density [kg/m3] | speed of sound [m/s] | viscosity [mPa·s]
293.15 K, x1 = 0.1586 | 780.89 ± 0.15 | 1353.2 ± 1 | 2.92 ± 0.02
293.15 K, x1 = 0.2971 | 788.51 ± 0.15 | 1350.1 ± 1 | 2.5 ± 0.01
293.15 K, x1 = 0.4067 | 795.49 ± 0.14 | 1347.8 ± 1 | 2.21 ± 0.01
293.15 K, x1 = 0.5293 | 804.56 ± 0.13 | 1346 ± 0.9 | 1.91 ± 0.01
293.15 K, x1 = 0.6278 | 813.07 ± 0.13 | 1345 ± 0.9 | 1.69 ± 0.01
293.15 K, x1 = 0.7158 | 821.75 ± 0.12 | 1345.1 ± 0.9 | 1.52 ± 0.01
293.15 K, x1 = 0.7981 | 831.1 ± 0.12 | 1346.3 ± 0.9 | 1.36 ± 0.01
293.15 K, x1 = 0.8709 | 840.48 ± 0.12 | 1347.8 ± 0.9 | 1.23 ± 0.01
293.15 K, x1 = 0.938 | 850.32 ± 0.11 | 1350.4 ± 0.9 | 1.12 ± 0.01
293.15 K, x1 = 1 | 860.51 ± 0.11 | 1353.7 ± 0.9 | 1.05 ± 0.01
303.15 K, x1 = 0.1586 | 773.89 ± 0.16 | 1316.1 ± 1 | 2.35 ± 0.01
303.15 K, x1 = 0.2971 | 781.43 ± 0.15 | 1313 ± 1 | 2.05 ± 0.01
303.15 K, x1 = 0.4067 | 788.33 ± 0.14 | 1310.7 ± 0.9 | 1.83 ± 0.01
303.15 K, x1 = 0.5293 | 797.29 ± 0.14 | 1308.8 ± 0.9 | 1.6 ± 0.01
303.15 K, x1 = 0.6278 | 805.7 ± 0.13 | 1307.7 ± 0.9 | 1.43 ± 0.01
303.15 K, x1 = 0.7158 | 814.27 ± 0.13 | 1307.6 ± 0.9 | 1.29 ± 0.01
303.15 K, x1 = 0.7981 | 823.49 ± 0.12 | 1308.5 ± 0.9 | 1.17 ± 0.01
303.15 K, x1 = 0.8709 | 832.73 ± 0.12 | 1309.7 ± 0.9 | 1.06 ± 0.01
303.15 K, x1 = 0.938 | 842.44 ± 0.12 | 1312 ± 0.9 | 0.976 ± 0.007
303.15 K, x1 = 1 | 852.49 ± 0.11 | 1314.9 ± 0.9 | 0.91 ± 0.007
313.15 K, x1 = 0.1586 | 766.88 ± 0.16 | 1279.5 ± 1 | 1.94 ± 0.01
313.15 K, x1 = 0.2971 | 774.34 ± 0.15 | 1276.4 ± 1 | 1.71 ± 0.01
313.15 K, x1 = 0.4067 | 781.16 ± 0.14 | 1274.1 ± 0.9 | 1.54 ± 0.01
313.15 K, x1 = 0.5293 | 790 ± 0.14 | 1272.1 ± 0.9 | 1.36 ± 0.01
313.15 K, x1 = 0.6278 | 798.3 ± 0.13 | 1270.8 ± 0.9 | 1.23 ± 0.01
313.15 K, x1 = 0.7158 | 806.75 ± 0.13 | 1270.5 ± 0.9 | 1.11 ± 0.01
313.15 K, x1 = 0.7981 | 815.84 ± 0.12 | 1271.1 ± 0.9 | 1.01 ± 0.01
313.15 K, x1 = 0.8709 | 824.96 ± 0.12 | 1272.1 ± 0.9 | 0.932 ± 0.007
313.15 K, x1 = 0.938 | 834.53 ± 0.12 | 1274 ± 0.9 | 0.859 ± 0.007
313.15 K, x1 = 1 | 844.43 ± 0.11 | 1276.6 ± 0.9 | 0.801 ± 0.006
323.15 K, x1 = 0.1586 | – | 1243.6 ± 1 | 1.62 ± 0.01
323.15 K, x1 = 0.2971 | – | 1240.4 ± 1 | 1.44 ± 0.01
323.15 K, x1 = 0.4067 | – | 1238 ± 0.9 | 1.31 ± 0.01
323.15 K, x1 = 0.5293 | – | 1235.9 ± 0.9 | 1.17 ± 0.01
323.15 K, x1 = 0.6278 | – | 1234.4 ± 0.9 | 1.06 ± 0.01
323.15 K, x1 = 0.7158 | – | 1233.9 ± 0.9 | 0.972 ± 0.007
323.15 K, x1 = 0.7981 | – | 1234.3 ± 0.9 | 0.891 ± 0.007
323.15 K, x1 = 0.8709 | – | 1235 ± 0.9 | 0.822 ± 0.006
323.15 K, x1 = 0.938 | – | 1236.6 ± 0.8 | 0.761 ± 0.006
323.15 K, x1 = 1 | – | 1238.7 ± 0.8 | 0.713 ± 0.006

Details | surface tension liquid-gas [mN/m]
x1 = 0.1586 | 27.5 ± 0.4
x1 = 0.2971 | 27.3 ± 0.4
x1 = 0.4067 | 27.6 ± 0.4
x1 = 0.5293 | 27.8 ± 0.4
x1 = 0.6278 | 27.9 ± 0.4
x1 = 0.7158 | 28 ± 0.4
x1 = 0.7981 | 28.2 ± 0.4
x1 = 0.8709 | 28.4 ± 0.4
x1 = 0.938 | 28.7 ± 0.4
